Holding throughout (test): NCI-60 cell line screen, 48 h
Experiment [1] has as its system LOX IMVI.
The subject of experiment [2] is HCC 2998.
Experiment [3] relates to A498.
For experiment [4], the system named is T47D.
Experiment [5] concerns SF-539.
The test system of experiment [6] is NCI/ADR-RES.
Experiment [7] has as its system HCT-116.
Experiment [8] has as its system RXF 393.
The test system of experiment [9] is SR.
Experiment [10] has as its system HL-60.
Experiment [11] deals with IGROV-1.
Experiment [12] concerns SF-295.
Experiment [13] deals with M14.
In experiment [14] the test system is SN12C.
Experiment [15] concerns NCI-H460.
For experiment [16], the system named is MDA-MB-435.
The test system of experiment [17] is NCI-H522.
Experiment [18] has as its system HCT-15.
Experiment [19] relates to CAKI-1.
Experiment [20] concerns COLO 205.

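Results reflect a 48-hour exposure of cells in 96-well plates to compound at five concentrations. Abbreviation: GI50, concentration required for 50% inhibition of growth.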 Activity calls are given as the source filed them. Cut-off read from the data, not from the text of the source: active = GI50 up to about 1.1 µM and inactive = higher. Where only a bound is given, the exact number is not on record here.

In the case of `CCN(CC)CC(O)CNc1ccc(NCC(O)CCl)c2c1C(=O)c1ccccc1C2=O` (stereo not drawn), the GI50 is 0.478 µM (active) in experiment [1]; 7.83 µM (inactive) in experiment [2]; 13.5 µM (inactive) in [3]; 21.1 µM (inactive) in experiment [4]; 6.27 µM (inactive) in experiment [5]; 2.45 µM (inactive) in experiment [6]. Moreover, the GI50 in experiment [7] was 1.67 µM (inactive); in experiment [8] it was 12.6 µM (inactive); in experiment [9], 1.05 µM (active); in experiment [10], 3.54 µM (inactive); in [11] it was 10 µM (inactive); in experiment [12], 9.75 µM (inactive). Besides, the GI50 in [13] was 3.3 µM (inactive); in experiment [14], 4.95 µM (inactive); in [15], 2.78 µM (inactive); in experiment [16] it was 4.45 µM (inactive); in [17] it was 4.47 µM (inactive); in experiment [18], 6.1 µM. Moreover, the values for the GI50 in experiment [19] and in experiment [20] were 8.67 µM (inactive) and 6.47 µM (inactive), respectively.

As to `O=S(=O)(CC(Cl)c1ccccc1)c1nc2ccccc2s1` (stereo not drawn), the GI50 is 1.5 µM (inactive) in experiment [1]; 17.5 µM (inactive) in [2]; 20 µM (inactive) in experiment [3]; 13.2 µM (inactive) in [4]; 10.2 µM (inactive) in experiment [5]; 10.7 µM (inactive) in [6]. In addition, the GI50 was 9.86 µM (inactive) in experiment [7]; 15 µM (inactive) in [8]; 1.67 µM (inactive) in [9]; 2.11 µM (inactive) in experiment [10]; 9.12 µM (inactive) in [11]; 17.9 µM (inactive) in experiment [12]. Also, the GI50 in experiment [13] was 2.29 µM (inactive); in [14], 10.2 µM (inactive); in [15], 19.7 µM (inactive); in experiment [16], 7.71 µM (inactive); in experiment [17], 1.85 µM (inactive); in experiment [18] it was 8.02 µM. The GI50 in [19] is 2.24 µM (inactive); in experiment [20], 7.93 µM (inactive).

With `CCCCCCCCCCCCCCCCCc1cccc(OCOCCOC)c1C(=O)O`, the GI50 is 24.6 µM (inactive) in experiment [1]; 19.1 µM (inactive) in [2]; 17.8 µM (inactive) in experiment [3]; 16.5 µM (inactive) in [4]; 16.2 µM (inactive) in experiment [5]; 14.5 µM (inactive) in experiment [6]. For the same compound, the GI50 was 19.4 µM (inactive) in [7]; 17.9 µM (inactive) in [8]; 25.4 µM (inactive) in experiment [9]; 20.9 µM (inactive) in experiment [10]; 16.9 µM (inactive) in experiment [11]; 18.1 µM (inactive) in [12]. Moreover, the GI50 was 16.5 µM (inactive) in experiment [13]; 22.4 µM (inactive) in [14]; 21.5 µM (inactive) in [15]; 19.2 µM (inactive) in [16]; 14.9 µM (inactive) in [17]; 19.3 µM in experiment [18]. Further, the GI50 in experiment [19] was 19.1 µM (inactive); in [20] it was 20.6 µM (inactive).

For the compound `CCOC(=O)/C=C(\C(=O)OCC)n1ccc(=O)[nH]c1=O`, the GI50 in experiment [1] is 12.8 µM (inactive); in [2] it was 22.4 µM (inactive); in experiment [3] it was 19.1 µM (inactive); in experiment [4], 6.59 µM (inactive); in [5], 24.2 µM (inactive); in experiment [6] it was 26.2 µM (inactive). For the same compound, the GI50 in [7] was 6.31 µM (inactive); in experiment [8], 10.6 µM (inactive); in experiment [9], 10.4 µM (inactive); in experiment [10] it was 2.44 µM (inactive); in experiment [11] it was 15.4 µM (inactive); in [12], > 60.8 µM (inactive). Further, the GI50 was 16.5 µM (inactive) in experiment [13]; 11.8 µM (inactive) in experiment [14]; 21.7 µM (inactive) in experiment [15]; 17.4 µM (inactive) in experiment [16]; 0.684 µM (active) in experiment [17]; 6.27 µM in [18]. The GI50 is 1.91 µM (inactive) in experiment [19] and 2.67 µM (inactive) in [20].

For `COc1ccc(N2C(=O)C3c4[nH]c5ccc([N+](=O)[O-])cc5c4C4CCC(C(C)(C)C)CC4C3C2=O)cc1` (stereo not drawn), the GI50 in experiment [1] was 15.2 µM (inactive); in experiment [2], 10.9 µM (inactive); in [3] it was 2.26 µM (inactive); in experiment [4] it was 27.5 µM (inactive); in experiment [5] it was 15.2 µM (inactive); in [6] it was 9.62 µM (inactive). Besides, the GI50 was 3.24 µM (inactive) in experiment [7]; 3.33 µM (inactive) in [8]; 3.72 µM (inactive) in [9]; 8.02 µM (inactive) in [10]; 7.66 µM (inactive) in [11]; 13.7 µM (inactive) in experiment [12]. Besides, the GI50 in experiment [13] is 14.8 µM (inactive); in experiment [14] it was 15.2 µM (inactive); in experiment [15], 2.15 µM (inactive); in [16], 18.7 µM (inactive); in experiment [17], 19.9 µM (inactive); in experiment [18] it was 14.4 µM. For the same compound, the GI50 in [19] was 18.3 µM (inactive); in [20], 4.82 µM (inactive).

Regarding `NC(=O)NC(=O)c1cccc(NC(=O)CCl)c1`, the GI50 is 0.465 µM (active) in experiment [1]; 0.764 µM (active) in experiment [2]; 2.55 µM (inactive) in experiment [3]; 2.18 µM (inactive) in [4]; 0.655 µM (active) in experiment [5]; 1.65 µM (inactive) in experiment [6]. In addition, the GI50 in experiment [7] was 0.392 µM (active); in experiment [8], 1.04 µM (active); in experiment [9], 0.124 µM (active); in [10], 0.569 µM (active); in experiment [11], 2.79 µM (inactive); in experiment [12] it was 2.79 µM (inactive). The GI50 in experiment [14] is 1.43 µM (inactive); in experiment [15], 1.5 µM (inactive); in experiment [16], 0.518 µM (active); in [17] it was 1.55 µM (inactive); in [18], 0.948 µM; in [19], 1.39 µM (inactive). Also, the GI50 in experiment [20] was 0.394 µM (active).

`Cc1cccc2c1C(=O)C(C1OC(=O)c3ccccc31)C2` (stereo not drawn): the GI50 in [1], in experiment [2], in experiment [3], in [4], in [5] and in [6] was > 100 µM (inactive) throughout. For the same compound, the GI50 in experiment [7] is 90.6 µM (inactive); in [8], 45.6 µM (inactive); in experiment [9] it was > 100 µM (inactive); in [10] it was > 100 µM (inactive); in experiment [11] it was > 100 µM (inactive); in experiment [12], > 100 µM (inactive). For the same compound, the GI50 was > 100 µM (inactive) in [14]; > 100 µM (inactive) in experiment [15]; > 100 µM (inactive) in experiment [16]; > 100 µM (inactive) in experiment [17]; above 100 µM in experiment [18]; > 100 µM (inactive) in [19]. Besides, the GI50 in experiment [20] was > 100 µM (inactive).

For the origin of these results see ChEMBL document CHEMBL1201862, “PubChem BioAssay data set” (2004).
